# Assay results reported in paper PMC12682947, “Identification of New KCNT1‐Epilepsy Drugs by In Silico, Cell, and Drosophila Modeling” (Annals of Neurology, 2025).
# Where a name gives a salt, the structure may show the parent alone. Read-outs that look alike come from different tables or passages of the source.
# Biological target: T1, WT/Y796H KCNT1 channels (Homo sapiens, UniProt Q5JUK3, Y796H)
# T1 construct: T2A self-cleaving motif ([…]) following the first subunit (C); expressed in transfected cells; host or cells: CHO cells
# T1 sequence (Q5JUK3 1-1230): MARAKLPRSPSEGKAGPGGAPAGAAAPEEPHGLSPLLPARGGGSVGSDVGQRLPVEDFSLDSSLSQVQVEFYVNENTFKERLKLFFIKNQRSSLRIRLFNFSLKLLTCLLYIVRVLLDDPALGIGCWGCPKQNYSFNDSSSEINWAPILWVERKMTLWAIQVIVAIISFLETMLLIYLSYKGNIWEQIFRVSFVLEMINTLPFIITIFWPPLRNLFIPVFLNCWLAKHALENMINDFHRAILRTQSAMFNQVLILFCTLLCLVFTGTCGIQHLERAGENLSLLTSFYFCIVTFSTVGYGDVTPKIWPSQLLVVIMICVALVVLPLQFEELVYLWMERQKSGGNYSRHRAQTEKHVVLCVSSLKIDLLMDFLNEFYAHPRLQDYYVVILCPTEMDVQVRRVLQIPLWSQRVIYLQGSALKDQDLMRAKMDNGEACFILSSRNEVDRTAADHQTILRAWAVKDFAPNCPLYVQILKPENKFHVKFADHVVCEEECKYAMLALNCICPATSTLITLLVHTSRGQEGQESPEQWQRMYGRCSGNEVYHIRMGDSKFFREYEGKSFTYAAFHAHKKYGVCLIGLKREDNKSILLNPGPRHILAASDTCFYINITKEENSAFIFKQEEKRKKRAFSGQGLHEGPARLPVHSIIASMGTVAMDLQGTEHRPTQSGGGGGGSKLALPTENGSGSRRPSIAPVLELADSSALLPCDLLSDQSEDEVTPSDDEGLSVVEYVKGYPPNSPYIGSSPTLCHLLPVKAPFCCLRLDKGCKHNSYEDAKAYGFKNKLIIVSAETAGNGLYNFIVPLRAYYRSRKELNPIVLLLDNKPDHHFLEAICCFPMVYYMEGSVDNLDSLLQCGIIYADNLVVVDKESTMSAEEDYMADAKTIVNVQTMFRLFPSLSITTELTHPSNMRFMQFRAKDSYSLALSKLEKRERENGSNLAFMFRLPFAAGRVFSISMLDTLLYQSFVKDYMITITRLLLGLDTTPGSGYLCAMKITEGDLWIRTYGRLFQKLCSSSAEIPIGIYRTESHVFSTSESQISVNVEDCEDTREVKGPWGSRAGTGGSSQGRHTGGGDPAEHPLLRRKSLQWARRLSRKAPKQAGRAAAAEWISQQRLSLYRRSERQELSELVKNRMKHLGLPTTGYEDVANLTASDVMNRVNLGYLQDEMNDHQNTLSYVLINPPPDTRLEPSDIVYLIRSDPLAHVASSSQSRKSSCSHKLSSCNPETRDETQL
# T1 sequence (Q5JUK3 2-1230 Y796H limits assumed): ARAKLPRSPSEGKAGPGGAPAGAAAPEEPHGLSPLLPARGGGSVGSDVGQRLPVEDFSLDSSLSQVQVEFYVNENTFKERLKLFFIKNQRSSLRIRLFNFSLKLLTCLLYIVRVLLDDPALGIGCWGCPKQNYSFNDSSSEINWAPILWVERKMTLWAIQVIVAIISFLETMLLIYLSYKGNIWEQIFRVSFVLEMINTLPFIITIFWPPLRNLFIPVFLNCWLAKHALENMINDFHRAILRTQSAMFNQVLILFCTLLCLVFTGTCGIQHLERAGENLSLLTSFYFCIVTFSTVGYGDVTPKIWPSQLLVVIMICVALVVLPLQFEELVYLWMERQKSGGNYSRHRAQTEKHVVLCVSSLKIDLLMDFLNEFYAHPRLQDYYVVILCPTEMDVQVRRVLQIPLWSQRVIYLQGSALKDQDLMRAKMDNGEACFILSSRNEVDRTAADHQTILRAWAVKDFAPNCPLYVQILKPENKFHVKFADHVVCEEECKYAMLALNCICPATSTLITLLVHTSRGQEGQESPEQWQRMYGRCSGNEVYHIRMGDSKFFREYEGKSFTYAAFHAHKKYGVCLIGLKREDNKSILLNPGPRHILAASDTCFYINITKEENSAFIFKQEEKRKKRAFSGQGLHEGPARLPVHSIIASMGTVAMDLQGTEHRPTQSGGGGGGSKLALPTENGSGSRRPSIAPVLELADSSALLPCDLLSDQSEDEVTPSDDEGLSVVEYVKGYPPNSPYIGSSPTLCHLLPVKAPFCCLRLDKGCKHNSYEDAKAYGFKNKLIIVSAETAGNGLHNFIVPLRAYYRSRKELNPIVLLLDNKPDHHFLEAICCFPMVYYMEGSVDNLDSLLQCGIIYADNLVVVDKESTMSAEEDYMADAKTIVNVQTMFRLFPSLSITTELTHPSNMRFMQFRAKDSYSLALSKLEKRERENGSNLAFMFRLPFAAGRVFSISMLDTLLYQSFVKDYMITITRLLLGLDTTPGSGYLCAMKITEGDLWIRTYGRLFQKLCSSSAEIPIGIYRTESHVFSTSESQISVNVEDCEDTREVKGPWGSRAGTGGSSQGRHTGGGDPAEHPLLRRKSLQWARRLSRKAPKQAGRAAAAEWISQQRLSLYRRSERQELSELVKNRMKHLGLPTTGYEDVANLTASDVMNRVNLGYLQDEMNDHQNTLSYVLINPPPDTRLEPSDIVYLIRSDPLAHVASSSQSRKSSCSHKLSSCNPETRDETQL
# Assay: Whole-cell patch clamp of WT/Y796H KCNT1 channels expressed in CHO cells
# Type: cell-based
# Excerpt: To replicate the heterozygous nature of KCNT1‐associated disorders and obtain channels comprising wild‐type (WT) and mutated subunits, a concatemeric approach was taken. To generate human KCNT1 concatemers, plasmids termed donor and recipient were generated from the pcDNA6‐KCNT1 construct used previously[16] and empty pcDNA6 V5/His6 vector (Invitrogen) using standard polymerase chain reaction (PCR) and cloning techniques. The insert of the donor construct comprised the KCNT1 coding sequence that lacked a start codon and preceded by bases encoding a […] linker. […] The recipient construct was generated by deleting the stop codon and introducing a unique XhoI site. Sequences containing disease mutation Y796H were subcloned into these constructs from a plasmid used previously.[16] All sequences generated by PCR were confirmed by Sanger sequencing (Genewiz, Takeley, UK). Finally, the concatemeric construct was generated by subcloning the XhoI/AgeI fragment from the donor plasmid, containing the in‐frame linker and complete subunit sequence into the same sites in the recipient plasmid. Recombination‐deficient competent Escherichia coli (E. coli) cells and 32°C incubation temperature were used to reduce the frequency of deletions between identical sequences in the plasmid, which was confirmed by restriction analysis. For other experiments, constructs with WT, G288S, R398Q, or R928C mutant forms of KCNT1 cDNA, tagged with YFP‐6His in the pCMV‐entry vectors, were described previously.[10]
# The CHO cells were cultured in Dulbecco's modified Eagle's Medium (ThermoFisher, UK) supplemented with 10% (v/v) fetal bovine serum, 50 U/ml penicillin and 0.05 mg/ml streptomycin, and incubated at 37°C in 5% CO2 atmosphere. For whole cell recording of WT/Y796H KCNT1, CHO cells were transiently co‐transfected with concatemeric WT/Y796H and EYFP, as described previously.[29] For electrophysiological experiments, cells were plated onto borosilicate glass cover slips and used 2 to 4 days later. Human embryonic kidney 293T cells (HEK293T) were cultured in the same manner, but with medium supplemented with 2 mM L‐glutamine, and 1% (v/v) nonessential amino acids. For excised inside‐out recording of homomeric WT or mutant YFP‐tagged KCNT1, HEK293T cells plated on glass cover slips were transfected using Attractene Transfection Reagent (Qiagen, Germany) according to the manufacturer's instructions and used 2 to 3 days later.
# Whole cell recordings from transiently transfected CHO cells were conducted at room temperature and analyzed as described previously.[29] The pipette (intracellular) solution contained, in mM, 100 K‐gluconate, 30 KCl, 10 Na‐gluconate, 29 glucose, 5 EGTA, and 10 HEPES, adjusted to pH 7.3 with KOH and the bath (extracellular) solution contained, in mM, 140 NaCl, 1 CaCl2, 5 KCl, 29 glucose, 10 HEPES, and 1 MgCl2, adjusted to pH 7.4 with NaOH. For current‐voltage and conductance‐voltage analysis of the concatemeric constructs, cells were held at −80 mV and 400 ms pulses were applied to voltages between −100 and 80 mV. Conductance values (G) with each voltage pulse (V) were obtained by dividing the peak steady‐state current by the driving force (command voltage minus the measured reversal potential). Conductance‐voltage data were fit by a Boltzmann function, G = (G max – G min)/(1 + e^(V‐V½)/k)) + G min, where G max and G min are the maximum and minimum conductance values, V ½ the half‐maximal activation voltage, and slope k. The liquid junction potential was calculated and was used to correct voltage values after data collection. Inhibition by drugs, which were obtained from commercial sources, was determined from currents evoked by 500 ms voltage ramps from −100 to 0 mV at 0.2 hertz (Hz) as described previously.[16] Initially, the drugs (10 mM in DMSO) were diluted to 10 μM in a bath solution and applied via gravity perfusion for 2 minutes, followed by at least a 2‐minute wash with drug‐free solution prior to addition of the next drug. […]
# [1] = whole-cell patch clamp, CHO cells
# [2] = whole-cell patch clamp, CHO cells, concentration-inhibition analysis, read-out: mean ± SEM IC50
Structure (SMILES),potency of concentration-dependent inhibition (in words) [1],IC50 [µM],inhibition of WT/Y796H KCNT1 channels at 10 μM [1],IC50 [2] [µM]
"CCOc1nc2cccc(C(=O)OC(C)OC(=O)OC3CCCCC3)c2n1Cc1ccc(-c2ccccc2-c2nn[nH]n2)cc1 (stereo not shown) [Candesartan cilexetil, candesartan cilexetil]",much less potent,–,–,–
O=C(OCCN1CCN(c2cccc(C(F)(F)F)c2)CC1)c1ccccc1Nc1ccnc2cc(C(F)(F)F)ccc12 [antrafenine],–,1.3 ± 0.2,inhibited,–
CC(C)c1c(C(=O)Nc2ccccc2)c(-c2ccccc2)c(-c2ccc(F)cc2)n1CC[C@@H](O)C[C@@H](O)CC(=O)O [atorvastatin],–,–,inhibited,7.54 ± 0.99
CC(C)[C@@H](C)/C=C/[C@@H](C)[C@H]1CC[C@H]2/C(=C/C=C3\C[C@@H](O)CC[C@@H]3C)CCC[C@]12C [dihydrotachysterol],–,–,did not exhibit inhibition,–
CC(C)(C)NC(=O)[C@@H]1CN(Cc2cccnc2)CCN1C[C@@H](O)C[C@@H](Cc1ccccc1)C(=O)N[C@H]1c2ccccc2C[C@H]1O [indinavir],–,–,did not exhibit inhibition,–
CS(=O)(=O)c1cccc(C[C@H](NC(=O)c2c(Cl)cc3c(c2Cl)CCN(C(=O)c2ccc4ccoc4c2)C3)C(=O)O)c1 [lifitegrast],–,–,did not exhibit inhibition,–
Cc1c(O)cccc1C(=O)N[C@@H](CSc1ccccc1)[C@H](O)CN1C[C@H]2CCCC[C@H]2C[C@H]1C(=O)NC(C)(C)C [nelfinavir mesylate],–,–,inhibited,2.86 ± 0.3
CNC(=O)c1cc(Oc2ccc(NC(=O)Nc3ccc(Cl)c(C(F)(F)F)c3)c(F)c2)ccn1 [regorafenib],–,–,inhibited,10.3 ± 1.25
CC(C)N1CCN(c2ccc(OCC3COC(Cn4cncn4)(c4ccc(Cl)cc4Cl)O3)cc2)CC1 (stereo not shown) [terconazole],–,–,did not exhibit inhibition,–
